Experiment [1] concerns the target T1, PSMA-expressing C4-2 cells (Homo sapiens, UniProt Q04609).
T1 construct: PSMA-expressing C4-2 cells (ATCC, Cat. No. CRL-3314) were cultured in RPMI-1640; host or cells: C4-2 cells
As to the kind of experiment: FACS binding assay (competition with 50 nM PSM-0183). As to conditions: pIC50 category of FACS binding, C4-2 cells; read-out: pIC50 [C4-2] CAT (converted). In short, it runs like this: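 Competition format: fluorescent tracer PSM-0183 (50 nM) displaced from PSMA on C4-2 cells by a test compound titration over 1 h at 4 °C. Bound tracer was quantified as flow-cytometric AF488 median fluorescence after washing. Four-parameter logistic fits of MFI data gave IC50 and pIC50.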
Background: A flow cytometer gives signals particle by particle.

Experiment [2] concerns the target T2, Fc-fusion protein of human PSMA (hPSMA-Fc) (Homo sapiens, UniProt Q04609).
T2 construct: purchased Acro Biosystems PSA-H5264
As to the kind of experiment: Surface plasmon resonance assay (Biacore T200, single cycle kinetic). It counts as binding. As to conditions: pKD category for PSMA SPR activity assay, hPSMA-Fc, 25° C.; read-out: pKD CAT (converted). The gist of the method: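 KD, expressed as pKD, came from 1:1 Langmuir fits of reference- and buffer-blank-subtracted SPR data. The runs were single-cycle kinetics at 25° C in HBST/0.1% DMSO over human PSMA-Fc, captured to ~1000 RU on a peptide-coated CM5 surface and regenerated with 10 mM glycine pH 1.5.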
For orientation: In SPR one partner is held on a chip, and binding of the other changes the refractive index at the surface.

Numbered stars: 1 amine (or outer) side, 2 acyl side, 3 side chain; on linkers, the order of the positions; unused ones are H or OH. Bridge positions count the residues as written; N and C are the ends. Square brackets hold non-standard residues; d marks the D form. Side chains are listed from the residue outwards. Peptide text beside a SMILES is read from it. * marks the point of attachment. TtdsdLys(DOTA)NH2 = NC(=O)[C@@H](CCCCNC(=O)CN1CCN(CC(=O)O)CCN(CC(=O)O)CCN(CC(=O)O)CC1)NC(=O)CCC(=O)NCCCOCCOCCOCCCN*; X7 = O=C(O)CN1CCN(CC(=O)O)CCN(CC(=O)NC2CCN(CC(=O)*)CC2)CCN(CC(=O)O)CC1; X3 = O=C(O)CN1CCN(CC(=O)O)CCN(CC(=O)NCCCOCCOCCOCCCN*)CCN(CC(=O)O)CC1; DOTA = O=C(O)CN1CCN(CC(=O)O)CCN(CC(=O)*)CCN(CC(=O)O)CC1; Phe(3-Cl) = N[C@@H](Cc1cccc(Cl)c1)C(=O)O; Phe(4-Cl) = N[C@@H](Cc1ccc(Cl)cc1)C(=O)O; X1 = O=C(CC1CCN([*:1])CC1)[*:2]; Suc = O=C(CCC(=O)[*:2])[*:1]; Tle = CC(C)(C)[C@H](N)C(=O)O; 4Abz = Nc1ccc(C(=O)O)cc1; Nle = CCCC[C@H](N)C(=O)O; Hexanoyl = CCCCCC(=O)*; Aib = CC(C)(N)C(=O)O; CO = O=C([*:1])[*:2]; NHBu = CCCCN* A value given as a limit tells only on which side of the number the result lay.

T1 sequence (Q04609 whole entry): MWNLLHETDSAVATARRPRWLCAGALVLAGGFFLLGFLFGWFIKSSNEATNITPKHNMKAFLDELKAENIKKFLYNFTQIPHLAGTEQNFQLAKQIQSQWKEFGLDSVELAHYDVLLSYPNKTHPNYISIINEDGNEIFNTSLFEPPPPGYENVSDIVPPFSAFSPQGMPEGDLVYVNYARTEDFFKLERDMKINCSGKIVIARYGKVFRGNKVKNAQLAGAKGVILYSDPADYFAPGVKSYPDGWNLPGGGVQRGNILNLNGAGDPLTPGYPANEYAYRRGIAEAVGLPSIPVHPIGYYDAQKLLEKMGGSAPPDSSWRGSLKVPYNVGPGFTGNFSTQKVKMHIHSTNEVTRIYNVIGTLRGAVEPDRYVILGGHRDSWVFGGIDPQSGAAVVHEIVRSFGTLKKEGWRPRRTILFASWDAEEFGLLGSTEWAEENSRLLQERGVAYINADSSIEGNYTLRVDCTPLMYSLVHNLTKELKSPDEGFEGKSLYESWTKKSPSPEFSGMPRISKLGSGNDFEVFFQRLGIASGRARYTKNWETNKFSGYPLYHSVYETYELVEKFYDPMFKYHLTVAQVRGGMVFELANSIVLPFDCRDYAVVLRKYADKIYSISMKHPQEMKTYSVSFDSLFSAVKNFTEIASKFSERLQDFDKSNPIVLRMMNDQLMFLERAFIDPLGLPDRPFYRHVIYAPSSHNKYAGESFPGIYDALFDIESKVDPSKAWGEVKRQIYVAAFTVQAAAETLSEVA
T2 sequence (Q04609 44-750 limits assumed): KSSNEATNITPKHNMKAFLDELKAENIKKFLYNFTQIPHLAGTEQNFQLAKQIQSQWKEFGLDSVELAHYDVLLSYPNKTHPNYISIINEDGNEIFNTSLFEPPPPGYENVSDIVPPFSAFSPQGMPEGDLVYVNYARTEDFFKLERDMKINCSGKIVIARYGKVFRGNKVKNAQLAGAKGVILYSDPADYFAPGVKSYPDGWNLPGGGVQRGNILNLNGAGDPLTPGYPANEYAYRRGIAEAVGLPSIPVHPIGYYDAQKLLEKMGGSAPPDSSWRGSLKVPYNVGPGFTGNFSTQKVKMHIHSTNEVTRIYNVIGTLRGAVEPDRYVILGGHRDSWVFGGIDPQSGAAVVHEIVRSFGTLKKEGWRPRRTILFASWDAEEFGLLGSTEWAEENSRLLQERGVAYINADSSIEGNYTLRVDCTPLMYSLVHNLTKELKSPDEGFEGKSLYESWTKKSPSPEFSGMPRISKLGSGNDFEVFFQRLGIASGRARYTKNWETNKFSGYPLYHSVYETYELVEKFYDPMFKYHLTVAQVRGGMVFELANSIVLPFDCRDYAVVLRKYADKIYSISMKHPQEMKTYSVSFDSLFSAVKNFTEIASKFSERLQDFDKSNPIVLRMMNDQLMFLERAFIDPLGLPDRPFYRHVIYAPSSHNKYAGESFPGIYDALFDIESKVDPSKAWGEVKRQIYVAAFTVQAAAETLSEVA

Regarding `CCCCCC(=O)N[C@H](C(=O)NC(C)(C)C(=O)N[C@@H](Cc1ccccc1)C(=O)N[C@H]1CSSC[C@@H](C(=O)N[C@H](C(=O)N[C@H](C(=O)NCCCOCCOCCOCCCNC(=O)CCC(=O)N[C@H](CCCCNC(=O)CN2CCN(CC(=O)O)CCN(CC(=O)O)CCN(CC(=O)O)CC2)C(N)=O)[C@@H](C)O)C(C)(C)C)NC(=O)[C@H](CC(N)=O)NC(=O)[C@H](C)NC(=O)[C@H](CCCNC(=N)N)NC(=O)[C@H](CCCCN)NC1=O)[C@@H](C)O` [PSM-0462, Hex-Thr-Aib-Phe-[Cys-Lys-Arg-Ala-Asn-Cys]-Tle-Thr-Ttds-lys(DOTA)-NH2] (Hexanoyl-T[Aib]FCKRANC[Tle]T-{TtdsdLys(DOTA)NH2}; disulfide 4-9), in experiment [1], the IC50 is under 200 nM. For the same compound, the Kd in experiment [2] is under 12.6 nM.
`CC(=O)N[C@H](C(=O)NC(C)(C)C(=O)N[C@@H](Cc1ccccc1)C(=O)N[C@H]1CSSC[C@@H](C(=O)N[C@H](C(=O)N[C@H](C(N)=O)[C@@H](C)O)C(C)(C)C)NC(=O)[C@H](CC(N)=O)NC(=O)[C@H](CCCCNC(=O)CN2CCC(NC(=O)CN3CCN(CC(=O)O)CCN(CC(=O)O)CCN(CC(=O)O)CC3)CC2)NC(=O)[C@H](CCCNC(=N)N)NC(=O)[C@H](CCCCN)NC1=O)[C@@H](C)O` [PSM-0464, Ac-Thr-Aib-Phe-[Cys-Lys-Arg-Lys(DOTA-APAc)-Asn-Cys]-Tle-Thr-NH2] (Ac-T[Aib]FCKRK(X7)NC[Tle]T-NH2; disulfide 4-9): the IC50 in experiment [1] was under 200 nM. Further, the Kd in experiment [2] was under 12.6 nM.
Taken in the same sequence, the figures for `CC(=O)N[C@H](C(=O)NC(C)(C)C(=O)N[C@@H](Cc1ccccc1)C(=O)N[C@H]1CSSC[C@@H](C(=O)N[C@H](C(=O)N[C@H](C(N)=O)[C@@H](C)O)C(C)(C)C)NC(=O)[C@H](CC(N)=O)NC(=O)[C@H](CCCCNC(=O)CCC(=O)NCCCOCCOCCOCCCNC(=O)CN2CCN(CC(=O)O)CCN(CC(=O)O)CCN(CC(=O)O)CC2)NC(=O)[C@H](CCCNC(=N)N)NC(=O)[C@H](CCCCN)NC1=O)[C@@H](C)O` [PSM-0465, Ac-Thr-Aib-Phe-[Cys-Lys-Arg-Lys(DOTA-Ttds)-Asn-Cys]-Tle-Thr-NH2] (Ac-T[Aib]FCKRK([Suc-X3])NC[Tle]T-NH2; disulfide 4-9) were under 200 nM and under 12.6 nM.
In the case of `CC(=O)NCCCC[C@@H]1NC(=O)[C@@H](NC(=O)[C@H](Cc2ccc(Cl)cc2)NC(=O)C(C)(C)NC(=O)[C@@H](NC(=O)CC2CCN(C(=O)CN3CCN(CC(=O)O)CCN(CC(=O)O)CCN(CC(=O)O)CC3)CC2)[C@@H](C)O)CSSC[C@@H](C(=O)N[C@H](C(=O)N[C@H](C(N)=O)[C@@H](C)O)C(C)(C)C)NC(=O)[C@H](CC(N)=O)NC(=O)C(C)(C)NC(=O)[C@H](CCCNC(=N)N)NC1=O` [PSM-0466, DOTA-Cmp-Thr-Aib-Pcf-[Cys-Lys(Ac)-Arg-Aib-Asn-Cys]-Tle-Thr-NH2] ({DOTA}-[X1]T[Aib][Phe(4-Cl)]CK(Ac)R[Aib]NC[Tle]T-NH2; disulfide 5-10), the IC50 in experiment [1] is 200 to 1260 nM. Further, the Kd in experiment [2] was under 12.6 nM.
For `CCCC[C@H](NC(=O)[C@@H]1CSSC[C@H](NC(=O)[C@H](Cc2ccccc2)NC(=O)[C@H](C)NC(=O)[C@H](CO)NC(C)=O)C(=O)N[C@@H](CCCCN)C(=O)N[C@@H](CCCNC(=N)N)C(=O)N[C@@H](C)C(=O)N[C@@H](CC(N)=O)C(=O)N1)C(=O)N[C@H](C(=O)N[C@@H](CC(=O)O)C(N)=O)[C@@H](C)O` [PSM-0469, Ac-Ser-Ala-Phe-[Cys-Lys-Arg-Ala-Asn-Cys]-Nle-Thr-Asp-NH2] (Ac-SAFCKRANC[Nle]TD-NH2; disulfide 4-9) the same measures were under 200 nM and 12.6 to 126 nM.
Taken in the same sequence, the figures for `CCCCNC(=O)N[C@H](C(=O)NC(C)(C)C(=O)N[C@@H](Cc1cccc(Cl)c1)C(=O)N[C@H]1CSSC[C@@H](C(=O)N[C@H](C(=O)N[C@H](C(=O)N2CCC(CC(=O)N[C@H](CCCCNC(=O)CN3CCN(CC(=O)O)CCN(CC(=O)O)CCN(CC(=O)O)CC3)C(N)=O)CC2)[C@@H](C)O)C(C)(C)C)NC(=O)[C@H](CC(N)=O)NC(=O)C(C)(C)NC(=O)[C@H](CCCNC(=N)N)NC(=O)[C@H](CCCCN)NC1=O)[C@@H](C)O` [PSM-0470, nBuCAyl-Thr-Aib-Mcf-[Cys-Lys-Arg-Aib-Asn-Cys]-Tle-Thr-Cmp-lys(DOTA)-NH2] ({NHBu-CO}-T[Aib][Phe(3-Cl)]CKR[Aib]NC[Tle]T[X1][dK](DOTA)-NH2; disulfide 4-9) were under 200 nM and under 12.6 nM.
`CC(=O)N[C@H](C(=O)NC(C)(C)C(=O)N[C@@H](Cc1ccccc1)C(=O)N[C@H]1CSSC[C@@H](C(=O)N[C@H](C(=O)N[C@H](C(=O)Nc2ccc(C(=O)N[C@H](CCCCNC(=O)CN3CCN(CC(=O)O)CCN(CC(=O)O)CCN(CC(=O)O)CC3)C(N)=O)cc2)[C@@H](C)O)C(C)(C)C)NC(=O)[C@H](CC(N)=O)NC(=O)C(C)(C)NC(=O)[C@H](CCCNC(=N)N)NC(=O)[C@H](CCCCN)NC1=O)[C@@H](C)O` [PSM-0471, Ac-Thr-Aib-Phe-[Cys-Lys-Arg-Aib-Asn-Cys]-Tle-Thr-Pab-lys(DOTA)-NH2] (Ac-T[Aib]FCKR[Aib]NC[Tle]T[4Abz][dK](DOTA)-NH2; disulfide 4-9): the IC50 in experiment [1] is under 200 nM. For the same compound, the Kd in experiment [2] is under 12.6 nM.

The values are drawn from patent US20260083865A1, “PROSTATE SPECIFIC MEMBRANE ANTIGEN (PSMA) LIGANDS AND USE THEREOF” (priority 2022, published 2026).
